We go through 7 molecules from patent US20210253520A1, “POLYMYXIN-BASED COMPOUNDS USEFUL AS ANTIBACTERIAL AGENTS” (UNIVERSITAT DE BARCELONA, priority 2018, published 2021).

Series [1] relates to Swiss CD-1 female mice. Briefly: Nephrotoxicity study, histopathological scoring of kidney lesions. The series is classed as in vivo. Also on record: key to Group Score (GS): mean of per-animal summed 0-4 lesion scores; higher = more nephrotoxic; key to Animal Score (AS), Partial AS: sum of 0-4 lesion parameter scores; higher = more nephrotoxic. The conditions noted are these: for Mice found dead / Group Score (GS) / Cell desquamation, Partial AS / Cell vacuolization, Partial AS / Cloudy swelling, Partial AS / Tubular casts, Partial AS / Tubular dilation, Partial AS / Tubular necrosis, Partial AS / Animal Score (AS), Partial AS / AS, Partial AS / Tubular dilaion, Partial AS: total 72 mg/Kg; for Animal Score (AS), Partial AS: sum over all mice; for nephrotoxicity in mice, in words: nephrotoxicity tests carried out in mice, statement of the background. How it is done:
Swiss CD-1 female mice weighing approximately 20-24 g (JANVIER Labs) were used, housed in an individually ventilated cage system under specific pathogen-free conditions, and water and food supplied ad libitum. This study plan and the conduct of the study were subjected to review by the Scientific Park of Barcelona Ethical Review Process with the current study procedure Code CEEA (AR) 9377-P2. Mice were administered at a dose of 12 mg/Kg every 2 hours for a total of 6 administrations (total dose 72 mg/Kg), unless otherwise stated. After 20 h, animals were anesthesized with isoflurane, kidneys extracted and prepared for histopathological evaluation, and finally animales were sacrificed. Kidney lesions (tubule dilation, necrosis, tubule casts, cell vacuolization, cell desquamation, and cell swelling) were quantified by microscopical observation (see for instance, Roberts, ACS Infect. Dis., 2015, 1, 568). Each one of these parameters was scored with values from 0 to 4 for each animal, as a global result of observations in kidney. Partial scores have been added up to obtain a final score for each animal (Animal Score, AS). The mean of animal score has been obtained to define the Group Score (GS). The higher the score, the more nephrotoxic a compound is. The nephrotoxicity score has been determined as according to the following table of approximated values: […]

In series [2] the test system is K. pneumoniae MB674. The series is classed as cell-based. Conditions: for antibacterial activity (MIC): MB674. How it is done: (§1) The antibacterial activity of the polymyxin lipopeptides was measured at ISGlobal following the microdilution test to determine the Minimal Inhibitory Concentrations (MIC) in sterile 96-well polypropilene plates. The concentration range was 32 a […] in Iso-Sensitest broth (Oxoid, ThermoFisher). The results were carried out in triplicate and the highest MIC is the one shown. Bacterial strains were grown in blood agar plates at 37° C. for 17 h. Fresh colonies were used to prepare a McFarland 0.5 solution that was finally added to the plates at 1 to 100 dilution
(§2) Samples of sensitive and multi-drug resistant bacteria were: E. coli ATCC 25922 E. coli MB1410; K. pneumoniae MB674; P. aeruginosa ATCC 27853; P. aeruginosa 36A.

In series [3] the test system is E. coli MB1410. Briefly: microbe, parasite or virus in culture. The series is classed as cell-based. The conditions noted are these: for antibacterial activity (MIC): MB1410. How it is done: as §1, §2
For series [4], the system named is P. aeruginosa ATCC 27853. Briefly: microbe, parasite or virus in culture. The conditions noted are these: for antibacterial activity (MIC): ATCC 27853. Format: cell-based. How it is done:
as §1, §2

The subject of series [5] is E. coli ATCC 25922. Briefly: microbe, parasite or virus in culture. The series is classed as cell-based. Conditions: for antibacterial activity (MIC): ATCC 25922. How it is done:
as §1, §2

For series [6], the system named is P. aeruginosa 36A. Kind of series: microbe, parasite or virus in culture. Format: cell-based. The conditions noted are these: for antibacterial activity (MIC): 36A. How it is done:
as §1, §2

Series [7] relates to E. coli MB1410. The conditions noted are these: comparative examples, extracted from Scientific Reports 5:10558 or WO2017093210A1; cited from earlier work.
Series [8] concerns K. pneumoniae MB674. Conditions: comparative examples, extracted from Scientific Reports 5:10558 or WO2017093210A1; cited from earlier work.
Series [9] concerns P. aeruginosa 36A. Conditions: comparative examples, extracted from Scientific Reports 5:10558 or WO2017093210A1; cited from earlier work.
Series [10] relates to P. aeruginosa ATCC 27853. Conditions: comparative examples, extracted from Scientific Reports 5:10558 or WO2017093210A1; cited from earlier work.
For series [11], the system named is E. coli ATCC 25922. The conditions noted are these: comparative examples, extracted from Scientific Reports 5:10558 or WO2017093210A1; cited from earlier work.
[12] abbreviates: Table 6, 12 mg/Kg every 2 hours × 6, subcutaneous.
Setting [13] is: Table 6, mean of animal scores, 12 mg/Kg every 2 hours × 6, subcutaneous.
Setting [14] is: Table 6, sum of mouse scores, 12 mg/Kg every 2 hours × 6, subcutaneous.
Setting [15] is: Table 8, 12 mg/Kg every 2 hours × 6 sc, 3 mice.

Read-outs that look alike come from different tables or passages of the source. Numbered stars: 1 amine (or outer) side, 2 acyl side, 3 side chain; on linkers, the order of the positions; unused ones are H or OH. Bridge positions count the residues as written; N and C are the ends. Square brackets hold non-standard residues; d marks the D form. Peptide text beside a SMILES is read from it. * marks the point of attachment. X1 = C[C@@H](O)[C@@H](CS[*:1])N[*:2]; dGly(nOct) = CCCCCCCC[C@@H](N)C(=O)O; Hica(2S) = CC(C)C[C@H](O)C(=O)O; Octanoyl = CCCCCCCC(=O)*; Dab = NCC[C@H](N)C(=O)O

For the molecule `CCCCCCCC[C@@H](N)C(=O)N[C@H](C(=O)N[C@@H](CCN)C(=O)N[C@H]1CSSC[C@H]([C@@H](C)O)NC(=O)[C@H](CCN)NC(=O)[C@H](CCN)NC(=O)[C@H](CC(C)C)OC(=O)[C@@H](CC(C)C)NC(=O)[C@H](CCN)NC1=O)[C@@H](C)O` [Example 8, DAdec-Thr-Dab-cyclo(S-S)[Cys-Dab-DLeu-OLe-Dab-Dab-Ttr]] (H-[dGly(nOct)]T[Dab]C[Dab][dL][Hica(2S)][Dab][Dab]; linker 4-C via X1), in series [1] (setting [12]), the Mice found dead result was “None” and the “Animal Score (AS), Partial AS” value turned out to be 0. Further, the “Group Score (GS)” value in series [1] (setting [13]) is given as 0. In series [1] (setting [14]), the “Cell desquamation, Partial AS” value amounted to 0; the “Cell vacuolization, Partial AS” value amounted to 0; the “Cloudy swelling, Partial AS” value amounted to 0; the “Tubular casts, Partial AS” value turned out to be 0. In [1] (setting [14]), the “Tubular dilation, Partial AS” value is 0 and the “Tubular necrosis, Partial AS” value was found to be 0. Moreover, the “antibacterial activity (MIC)” value in series [2] was 1 µg/mL. In [3], the “antibacterial activity (MIC)” value was determined as 1 µg/mL. In addition, the “antibacterial activity (MIC)” value in series [4] is 2 µg/mL. The “antibacterial activity (MIC)” value in series [5] is 2 µg/mL. Moreover, the “antibacterial activity (MIC)” value in [6] stood at 1 µg/mL.
For the molecule `CCCCCCCC(=O)N[C@@H](CCN)C(=O)N[C@H](C(=O)N[C@@H](CCN)C(=O)N[C@H]1CSSC[C@H]([C@@H](C)O)NC(=O)[C@H](CCN)NC(=O)[C@H](CCN)NC(=O)[C@H](CC(C)C)OC(=O)[C@@H](Cc2ccccc2)NC(=O)[C@H](CCN)NC1=O)[C@@H](C)O` [Example 9, Octanoyl-Dab-Thr-Dab-cyclo(S-S)[Cys-Dab-DPhe-OLe-Dab-Dab-Ttr]] (Octanoyl-[Dab]T[Dab]C[Dab][dF][Hica(2S)][Dab][Dab]; linker 4-C via X1), in [1] (setting [12]), the Mice found dead was determined as 1 and the “Animal Score (AS), Partial AS” value is 0. In [1] (setting [13]), the “Group Score (GS)” value is given as 0. In [1] (setting [14]), the “Cell desquamation, Partial AS” value was determined as 0; the “Cell vacuolization, Partial AS” value stood at 0; the “Cloudy swelling, Partial AS” value is reported as 0; the “Tubular casts, Partial AS” value worked out at 0. For the same molecule, in [1] (setting [14]), the “Tubular dilation, Partial AS” value is reported as 0 and the “Tubular necrosis, Partial AS” value is recorded as 0. Also, the “antibacterial activity (MIC)” value in series [2] amounted to 1 µg/mL. The “antibacterial activity (MIC)” value in series [3] came out at 1 µg/mL. For the same molecule, the “antibacterial activity (MIC)” value in series [4] was 2 µg/mL. Besides, the “antibacterial activity (MIC)” value in series [5] stood at 4 µg/mL. The “antibacterial activity (MIC)” value in [6] was determined as 2 µg/mL.
Take `CCCCCCCC[C@@H](N)C(=O)N[C@H](C(=O)N[C@@H](CCN)C(=O)N[C@H]1CSSC[C@H]([C@@H](C)O)NC(=O)[C@H](CCN)NC(=O)[C@H](CCN)NC(=O)[C@H](CC(C)C)OC(=O)[C@@H](Cc2ccccc2)NC(=O)[C@H](CCN)NC1=O)[C@@H](C)O` [Example 10, DAdec-Thr-Dab-cyclo(S-S)[Cys-Dab-DPhe-Ole-Dab-Dab-Ttr]] (H-[dGly(nOct)]T[Dab]C[Dab][dF][Hica(2S)][Dab][Dab]; linker 4-C via X1): in [1] (setting [12]), the Mice found dead entry was “None” and the “Animal Score (AS), Partial AS” value turned out to be 0. In addition, the “Group Score (GS)” value in [1] (setting [13]) is given as 0. For the same molecule, in series [1] (setting [14]), the “Cell desquamation, Partial AS” value came out at 0; the “Cell vacuolization, Partial AS” value is 0; the “Cloudy swelling, Partial AS” value worked out at 0; the “Tubular casts, Partial AS” value stood at 0. For the same molecule, in series [1] (setting [14]), the “Tubular dilation, Partial AS” value turned out to be 0 and the “Tubular necrosis, Partial AS” value is listed as 0. Further, the “antibacterial activity (MIC)” value in [2] stood at 2 µg/mL. Also, the “antibacterial activity (MIC)” value in series [3] was 1 µg/mL. In addition, the “antibacterial activity (MIC)” value in series [4] amounted to 2 µg/mL. Moreover, in series [5], the “antibacterial activity (MIC)” value came to 2 µg/mL. For the same molecule, in [6], the “antibacterial activity (MIC)” value worked out at 2 µg/mL.
Colistin [Col.]: the “antibacterial activity (MIC)” value in series [7] was 0.5 µg/mL; in [8] it was 1 µg/mL; in [9], 1 µg/mL; in series [10] it was 2 µg/mL; in series [11] it was 0.5 µg/mL. For the same molecule, the MIC in series [2] (resistance profile of strain K. pneumoniae MB674, Table 3) stood at 0.2 µg/mL; in series [3] (resistance profile of strain E. coli MB1410, Table 3), 0.75 µg/mL; in series [4] (resistance profile of strain P. aeruginosa ATCC 27853, Table 3), 2 µg/mL; in [5] (resistance profile of strain E. coli ATCC 25922, Table 3) it was 0.5 µg/mL; in series [6] (resistance profile of strain P. aeruginosa 36A, Table 3), 1 µg/mL.
“DAoc-Thr-Dab-cyclo(S-S)[Cys-Dab-DAoc-Leu-Dab-Dab-DCys] [compound 4]”: the “antibacterial activity (MIC)” value in [7] was 4 µg/mL; in series [8] it was 2 µg/mL; in series [9] it was 2 µg/mL; in [10], 2 µg/mL; in series [11], 4 µg/mL. The “Group Score (GS)” value in series [1] (setting [15]) is listed as “All mice dead”. Moreover, the Mice found dead in series [1] (setting [15]) came to 3. In series [1], the “nephrotoxicity in mice, in words” value is given as “showed nephrotoxicity”.
Turning to “DAoc-Thr-Dab-cyclo(S-S)[Cys-Dab-DNIe-Leu-Dab-Dab-DCys] [compound 5]”, the “antibacterial activity (MIC)” value in series [7] was 8 µg/mL. In series [1] (setting [15]), the “AS, Partial AS” value worked out at 13; the “Cell vacuolization, Partial AS” value was determined as 0; the “Cloudy swelling, Partial AS” value is on record as 4; the “Group Score (GS)” value turned out to be 4.3. Further, in series [1] (setting [15]), the Mice found dead entry is listed as “none”; the “Tubular casts, Partial AS” value stood at 3; the “Tubular dilaion, Partial AS” value is recorded as 6; the “Tubular necrosis, Partial AS” value came to 0. Also, the “nephrotoxicity in mice, in words” value in series [1] was “showed nephrotoxicity”. The “antibacterial activity (MIC)” value in series [8] was 8 µg/mL. In addition, the “antibacterial activity (MIC)” value in series [9] is 2 µg/mL. Further, in series [10], the “antibacterial activity (MIC)” value is 4 µg/mL. For the same molecule, the “antibacterial activity (MIC)” value in series [11] is 16 µg/mL.
With “Heptanoyl-Dab-Thr-Dab-cyclo(S-S)[Cys-Dab-DAoc-Nle-Dab-Dab-DCys] [compound 3]”, in [7], the “antibacterial activity (MIC)” value is 2 µg/mL. In series [1] (setting [15]), the “AS, Partial AS” value stood at 8; the “Cell vacuolization, Partial AS” value is listed as 3; the “Group Score (GS)” value is on record as 8; the Mice found dead stood at 2 dead. In series [1] (setting [15]), the “Tubular dilaion, Partial AS” value turned out to be 2 and the “Tubular necrosis, Partial AS” value stood at 3. The “nephrotoxicity in mice, in words” value in series [1] is given as “showed nephrotoxicity”. The “antibacterial activity (MIC)” value in series [8] is 2 µg/mL. Moreover, the “antibacterial activity (MIC)” value in series [9] is 2 µg/mL. Moreover, the “antibacterial activity (MIC)” value in series [10] is 2 µg/mL. For the same molecule, in series [11], the “antibacterial activity (MIC)” value was 16 µg/mL.
